The record followed here is ChEMBL document CHEMBL1641565, “Discovery and optimisation of a selective non-steroidal glucocorticoid receptor antagonist” (Bioorg Med Chem Lett, 2011).

pEC50: −log10 of the molar value. ≈ marks a conversion by molar mass, not a printed value. A value given as a limit tells only on which side of the number the result lay.

Series [1] has as its target T1, Glucocorticoid receptor (Homo sapiens, UniProt P04150).
T1 sequence (P04150 whole entry): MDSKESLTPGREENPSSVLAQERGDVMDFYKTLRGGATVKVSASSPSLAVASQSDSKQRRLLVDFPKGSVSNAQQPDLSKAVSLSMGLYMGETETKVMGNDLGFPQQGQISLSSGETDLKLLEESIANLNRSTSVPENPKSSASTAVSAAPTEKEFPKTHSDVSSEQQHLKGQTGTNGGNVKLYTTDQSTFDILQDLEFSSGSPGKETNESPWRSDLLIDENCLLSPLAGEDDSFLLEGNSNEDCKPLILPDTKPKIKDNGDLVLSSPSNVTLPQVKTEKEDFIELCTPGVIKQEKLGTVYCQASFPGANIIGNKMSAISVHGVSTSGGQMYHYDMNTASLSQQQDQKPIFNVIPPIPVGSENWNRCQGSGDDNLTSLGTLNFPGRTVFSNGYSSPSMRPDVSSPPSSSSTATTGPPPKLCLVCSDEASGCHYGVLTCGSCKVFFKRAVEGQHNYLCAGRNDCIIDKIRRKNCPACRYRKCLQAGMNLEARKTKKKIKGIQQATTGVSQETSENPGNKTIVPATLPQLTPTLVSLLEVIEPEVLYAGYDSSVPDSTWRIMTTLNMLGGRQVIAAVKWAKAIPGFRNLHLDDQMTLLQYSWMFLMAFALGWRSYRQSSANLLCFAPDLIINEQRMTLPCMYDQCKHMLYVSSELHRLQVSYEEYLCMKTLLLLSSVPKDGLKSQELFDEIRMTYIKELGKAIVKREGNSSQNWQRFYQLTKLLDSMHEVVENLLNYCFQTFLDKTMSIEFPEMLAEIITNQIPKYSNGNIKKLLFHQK
Description: Binding affinity to human recombinant GR by competition ligand binding fluorescence polarization assay. Background: Fluorescence polarisation rises when a labelled molecule tumbles more slowly, as on binding a larger partner.

The target in a further series is T2, Progesterone receptor (Homo sapiens, UniProt P06401).
T2 sequence (P06401 whole entry): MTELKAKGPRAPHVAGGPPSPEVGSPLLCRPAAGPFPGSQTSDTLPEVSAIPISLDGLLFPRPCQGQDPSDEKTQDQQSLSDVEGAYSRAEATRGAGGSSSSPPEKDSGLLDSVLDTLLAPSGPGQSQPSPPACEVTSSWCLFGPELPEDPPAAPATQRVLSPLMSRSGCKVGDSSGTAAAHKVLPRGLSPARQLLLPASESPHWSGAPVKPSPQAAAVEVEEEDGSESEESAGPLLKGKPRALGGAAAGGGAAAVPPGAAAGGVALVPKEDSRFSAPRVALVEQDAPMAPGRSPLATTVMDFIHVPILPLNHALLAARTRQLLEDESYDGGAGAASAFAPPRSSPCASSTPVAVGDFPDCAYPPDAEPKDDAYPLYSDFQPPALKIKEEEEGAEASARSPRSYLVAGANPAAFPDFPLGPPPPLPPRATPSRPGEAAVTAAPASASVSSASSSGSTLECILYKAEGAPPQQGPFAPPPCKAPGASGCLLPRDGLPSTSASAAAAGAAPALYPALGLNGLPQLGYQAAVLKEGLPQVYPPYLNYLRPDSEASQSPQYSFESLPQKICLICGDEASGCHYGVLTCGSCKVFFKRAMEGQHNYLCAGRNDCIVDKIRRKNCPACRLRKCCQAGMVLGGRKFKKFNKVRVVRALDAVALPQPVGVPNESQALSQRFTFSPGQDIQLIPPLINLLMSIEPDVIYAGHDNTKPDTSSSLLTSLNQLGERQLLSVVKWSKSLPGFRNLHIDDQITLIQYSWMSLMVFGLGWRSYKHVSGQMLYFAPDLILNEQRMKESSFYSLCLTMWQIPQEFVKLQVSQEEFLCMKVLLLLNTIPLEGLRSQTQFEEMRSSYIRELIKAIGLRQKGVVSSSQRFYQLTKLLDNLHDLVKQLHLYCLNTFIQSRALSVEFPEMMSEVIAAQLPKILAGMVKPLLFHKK
The series can be described thus: Binding affinity to human recombinant PR by competition ligand binding fluorescence polarization assay.

The nature of series [2]: Intrinsic clearance in human liver microsomes measured per mg of protein. Type of series: ADME, Microsome.
The nature of series [3]: Solubility of the compound in PBS at pH 7.4. Type of series: physicochemical.
The nature of series [4]: Intrinsic clearance in rat liver microsomes measured per mg of protein. Type of series: ADME, Microsome.
Series [5] concerns the target T1, Glucocorticoid receptor. Description: Antagonist activity at human GR […] domain transfected in CHO cells co-transfected with MMTV-luciferase gene assessed as inhibition of cortisol-induced luciferase activity. Type of series: cell-based.
Series [6] has as its target T3, Mineralocorticoid receptor (Homo sapiens, UniProt P08235).
T3 sequence (P08235 whole entry): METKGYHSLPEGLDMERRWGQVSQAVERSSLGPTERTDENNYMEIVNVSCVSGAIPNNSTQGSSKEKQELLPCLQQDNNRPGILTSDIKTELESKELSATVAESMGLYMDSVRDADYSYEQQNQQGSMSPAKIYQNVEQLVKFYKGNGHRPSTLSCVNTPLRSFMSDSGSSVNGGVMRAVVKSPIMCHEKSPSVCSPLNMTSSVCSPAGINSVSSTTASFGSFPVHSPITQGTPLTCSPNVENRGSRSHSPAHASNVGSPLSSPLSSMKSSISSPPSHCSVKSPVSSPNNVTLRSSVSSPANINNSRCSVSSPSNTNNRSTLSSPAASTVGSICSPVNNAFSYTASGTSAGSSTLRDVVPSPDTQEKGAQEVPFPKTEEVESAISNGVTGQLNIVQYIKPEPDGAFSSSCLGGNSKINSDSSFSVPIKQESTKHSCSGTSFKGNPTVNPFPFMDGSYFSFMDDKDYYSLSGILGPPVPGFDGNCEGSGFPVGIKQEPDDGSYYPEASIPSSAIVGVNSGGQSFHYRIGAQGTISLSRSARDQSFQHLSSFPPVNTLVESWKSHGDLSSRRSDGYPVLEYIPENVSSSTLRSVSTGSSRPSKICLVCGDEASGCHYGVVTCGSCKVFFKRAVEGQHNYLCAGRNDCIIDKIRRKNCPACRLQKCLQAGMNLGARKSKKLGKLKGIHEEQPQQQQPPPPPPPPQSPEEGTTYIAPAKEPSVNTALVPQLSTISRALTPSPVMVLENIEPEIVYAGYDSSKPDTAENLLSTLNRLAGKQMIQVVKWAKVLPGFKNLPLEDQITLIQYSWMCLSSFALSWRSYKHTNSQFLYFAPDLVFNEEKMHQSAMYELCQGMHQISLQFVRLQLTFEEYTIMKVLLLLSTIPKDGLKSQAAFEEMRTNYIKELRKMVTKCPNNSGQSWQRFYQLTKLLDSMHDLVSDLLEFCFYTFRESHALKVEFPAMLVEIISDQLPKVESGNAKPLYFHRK
The series can be described thus: Antagonist activity at human MR ligand binding domain transfected in CHO cells co-transfected with MMTV-luciferase gene assessed as inhibition of cortisol-induced luciferase activity. Type of series: cell-based.

Series [7] in a line: Oral bioavailability in Wistar rat at 10 mg/kg. Type of series: ADME, organism-based. To be noted: in vivo.
A short description of series [8]: Plasma clearance in Wistar rat at 2 mg/kg, iv; 10 mg/kg, po. Type of series: ADME, organism-based.
The nature of series [9]: Volume of distribution at steady state in Wistar rat at 2 mg/kg, iv; 10 mg/kg, po. Type of series: ADME, organism-based. Particulars: in vivo, read-out: Vdss.

A word on the pEC50: it is −log10 of the EC50, conventionally taken in molar units. Regarding `COc1ccc(F)cc1-c1ccc([C@@H](C)NS(=O)(=O)c2c(C)noc2C)cc1`, the pEC50 on Glucocorticoid receptor [1] was 8.30; at Progesterone receptor, 6.70.

Take `Cc1noc(C)c1-c1ccc(CNS(=O)(=O)c2c(C)noc2C)cc1`: the negative logarithm of the EC50 (pEC50) at Glucocorticoid receptor [1] is 8.40; at Progesterone receptor, 8.10.

On to `Cc1noc(C)c1S(=O)(=O)NCc1ccc(-c2ccccc2)cc1`, for which the pEC50 is 6.00 at Glucocorticoid receptor [1] and under 5.00 at Progesterone receptor.

For the molecule `COc1ccccc1-c1ccc(CNS(=O)(=O)c2c(C)noc2C)cc1`, the pEC50 was 7.50 on Glucocorticoid receptor [1] and 6.70 on Progesterone receptor.

On to `COc1ccc(F)cc1-c1ccc(CNS(=O)(=O)c2c(C)noc2C)cc1`, for which the pEC50 at Glucocorticoid receptor [1] was 7.90; at Progesterone receptor, 6.90.

Take `COc1ccc(F)cc1-c1ccc(CNS(=O)(=O)c2cc(Cl)ccc2Cl)cc1`: the pEC50 is 8.70 on Glucocorticoid receptor [1] and 7.30 on Progesterone receptor.

For `COc1ccc(F)cc1-c1ccc([C@H](C)NS(=O)(=O)c2c(C)noc2C)cc1`, the pEC50 is 7.60 on Glucocorticoid receptor [1] and 6.60 on Progesterone receptor.

Turning to `COc1ncccc1-c1ccc([C@@H](C)NS(=O)(=O)c2c(C)noc2C)cc1`, the pEC50 on Glucocorticoid receptor [1] was 7.60; on Progesterone receptor it was 6.10.

In general, microsomal CLint refers to the rate of metabolic loss divided by the concentration. A low value points to greater metabolic stability. `Cc1noc(C)c1S(=O)(=O)N[C@H](C)c1ccc(-c2cccnc2OC(F)F)cc1`: the negative-log EC50 (pEC50) was 8.00 at Glucocorticoid receptor [1] and 6.20 at Progesterone receptor. Also, the microsomal CLint in series [2] is over 270 µL/min/mg.

For the molecule `COc1ncc(C#N)cc1-c1ccc([C@@H](C)NS(=O)(=O)c2c(C)noc2C)cc1`, the pEC50 on Glucocorticoid receptor [1] is 8.20; on Progesterone receptor it was 7.10.

As for `COc1ccc(F)cc1-c1ccc([C@@H](C)NS(=O)(=O)c2cn(C)nc2C(F)(F)F)cc1`, the figures for the negative logarithm of the EC50 (pEC50) on Glucocorticoid receptor [1] and on Progesterone receptor were 8.40 and 6.10, respectively.

Turning to `COc1ncccc1-c1ccc([C@@H](C)NS(=O)(=O)c2cn(C)nc2C(F)(F)F)cc1`, the negative-log EC50 (pEC50) at Glucocorticoid receptor [1] is 7.90; on Progesterone receptor it was under 5.00.

A word on the solubility: it is how much of the substance goes into solution per volume. A lower solubility goes with little dissolved substance. For orientation: bioavailability means the share of a dose that reaches the circulation, judged against a reference dose that is usually intravenous. Read a low bioavailability as little systemic uptake. As for `COc1ncc(C#N)cc1-c1ccc([C@@H](C)NS(=O)(=O)c2cn(C)nc2C(F)(F)F)cc1`, the pEC50 on Glucocorticoid receptor [1] was 7.90; at Progesterone receptor it was under 5.00; at Glucocorticoid receptor [5] it was 7.00; in [6], under 5.00. In series [3], this molecule registered a solubility of 28.9 µg/mL (≈ 62.1 µM). In addition, the microsomal CLint in series [4] and in series [2] was under 12 µL/min/mg throughout. The molecule further displayed a bioavailability in [7] of 42%. This molecule also showed a clearance in series [8] of 9.8 mL/min/kg. Moreover, the Vd in [9] was determined as 0.7 L/kg.
